Our source for the EC50 values is patent publication US20110190269A1, “GAMMA SECRETASE MODULATORS” (priority 2010, published 2011).

Molecules are shown by their SMILES.

This experiment has as its system γ-secretase. Description: Cellular γ-secretase assay (inhibition of Aβ42 secretion). The experiment is classed as cell-based. As to conditions: human neuroglioma H4 cells overexpressing human APP, 22 hrs incubation. The essentials:
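H4 neuroglioma cells overexpressing human APP got a ten-point compound dilution (0.4% DMSO final) for 22 h at 37 °C. Secreted Aβ42 in the supernatant was measured by electrochemiluminescence sandwich immunoassay (capture biotinylated 6E10, detection ruthenylated BAP15). IC50 came from a nonlinear regression fit.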
By EC50 is commonly meant the concentration needed to bring the measured effect to its halfway point. High values mean weaker potency, low ones greater potency. In the case of `COc1cc(Nc2nc3c(-c4ccc(F)c(F)c4F)cc(C4CC4)cn3n2)ccc1-n1cnc(C)c1` [Example 120, [6-Cyclopropyl-8-(2,3,4-trifluoro-phenyl)-[1,2,4]triazolo[1,5-a]pyridin-2-yl]-[3-methoxy-4-(4-methyl-imidazol-1-yl)-phenyl]-amine], a half-maximal response (EC50) required 96 nM.
In turn, `COc1cc(Nc2nc3c(-c4ccc(F)c(Cl)c4)cccn3n2)ccc1-n1cnc(C)c1` [Example 130, 8-(3-chloro-4-fluorophenyl)-N-(3-methoxy-4-(4-methyl-1H-imidazol-1-yl)phenyl)-[1,2,4]triazolo[1,5-a]pyridin-2-amine] gave an EC50 of 16 nM.
The figure for `Cc1cn(-c2c(F)cc(Nc3nc4c(-c5ccc(F)cc5Cl)cccn4n3)cc2F)cn1` [Example 111, 8-(2-chloro-4-fluorophenyl)-N-(3,5-difluoro-4-(4-methyl-1H-imidazol-1-yl)phenyl)-[1,2,4]triazolo[1,5-a]pyridin-2-amine] is 29 nM.
Regarding `COC(=O)c1cc(-c2cccc(OC(F)F)c2)n2nc(Nc3ccc(-n4cnc(C)c4)c(OC)c3)nc2n1` [Example 19, 7-(3-Difluoromethoxy-phenyl)-2-[3-methoxy-4-(4-methyl-imidazol-1-yl)-phenylamino]-[1,2,4]triazolo[1,5-a]pyrimidine-5-carboxylic acid methyl ester acetate], a half-maximal effect (EC50) was put at 953 nM.
Regarding `COc1cc(Nc2nc3c(-c4ccc5nc(C)oc5c4)cc(C)cn3n2)ccc1-n1cnc(C)c1` [Example 87, N-(3-Methoxy-4-(4-methyl-1H-imidazol-1-yl)phenyl)-6-methyl-8-(2-methylbenzo[d]oxazol-6-yl)-[1,2,4]triazolo[1,5-a]pyridin-2-amine], a half-maximal effect (EC50) was put at 44 nM.
For the compound `COc1cc(Nc2nc3nc(C)cc(-c4ccc(F)c(Cl)c4)n3n2)ccc1-n1cnc(C)c1` [Example 93, 7-(3-Chloro-4-fluorophenyl)-N-(3-methoxy-4-(4-methyl-1H-imidazol-1-yl)phenyl)-5-methyl-[1,2,4]triazolo[1,5-a]pyrimidin-2-amine], a half-maximal effect (EC50) was put at 68 nM.
`COc1cc(Nc2nc3c(-c4ccc(Cl)cc4C=O)cc(C)cn3n2)ccc1-n1cnc(C)c1` [Example 91, 5-Chloro-2-(2-(3-methoxy-4-(4-methyl-1H-imidazol-1-yl)phenylamino)-6-methyl-[1,2,4]triazolo[1,5-a]pyridin-8-yl)benzaldehyde] yielded an EC50 of 310 nM.
The figure for `COc1cc(Nc2nc3ncc(C#N)c(-c4ccccc4F)n3n2)ccc1-n1cnc(C)c1` [Example 69, 7-(2-Fluorophenyl)-2-(3-methoxy-4-(4-methyl-1H-imidazol-1-yl)phenylamino)-[1,2,4]triazolo[1,5-a]pyrimidine-6-carbonitrile] is 485 nM; for `COc1cc(Nc2nc3nccc(-c4ccc(F)cc4)n3n2)ccc1-n1cnc(C)c1` [Example 71, [7-(4-Fluoro-phenyl)-[1,2,4]triazolo[1,5-a]pyrimidin-2-yl]-[3-methoxy-4-(4-methyl-imidazol-1-yl)-phenyl]-amine] it is 270 nM; for `COc1cc(Nc2nc3ncc(C#N)c(-c4ccc(Cl)cc4)n3n2)ccc1-n1cnc(C)c1` [Example 39, 7-(4-Chloro-phenyl)-2-[3-methoxy-4-(4-methyl-imidazol-1-yl)-phenylamino]-[1,2,4]triazolo[1,5-a]pyrimidine-6-carbonitrile] it is 145 nM.
The figure for `COc1cc(Nc2nc3c(-c4cccc(CNS(C)(=O)=O)c4)cc(C)cn3n2)ccc1-n1cnc(C)c1` [Example 98, N-(3-(2-(3-Methoxy-4-(4-methyl-1H-imidazol-1-yl)phenylamino)-6-methyl-[1,2,4]triazolo[1,5-a]pyridin-8-yl)benzyl)methanesulfonamide] is 390 nM.
`COc1cc(Nc2nc3nc(C)cc(-c4ccccc4)n3n2)ccc1-n1cnc(C)c1` [Example 18, [3-Methoxy-4-(4-methyl-imidazol-1-yl)-phenyl]-(5-methyl-7-phenyl-[1,2,4]triazolo[1,5-a]pyrimidin-2-yl)-amine acetate] registered an EC50 of 129 nM.
As to `COc1cc(Nc2nc3n(n2)C(c2ccc(F)cc2)CN(C)C3)ccc1-n1cnc(C)c1` (centres unmarked) [Example 124, 5-(4-fluorophenyl)-N-(3-methoxy-4-(4-methyl-1H-imidazol-1-yl)phenyl)-7-methyl-5,6,7,8-tetrahydro-[1,2,4]triazolo[1,5-a]pyrazin-2-amine], the EC50 was found to be 357 nM.
The figure for `COc1ccc2nc(Nc3ccc(-n4cnc(C)c4)c(OC)c3)nn2n1` [Example 42, [3-Methoxy-4-(4-methyl-imidazol-1-yl)-phenyl]-(6-methoxy-[1,2,4]triazolo[1,5-b]pyridazin-2-yl)-amine] is 1320 nM.
